Our source for the viability, T/C and IC50 values is PubChem BioAssay AID1918953 (Molecular Pharmacology Branch, DTP, NCI, 2023).

This experiment has as its system MDA-MB-231 complex spheroid viability. In words: Anticancer human tumor MDA-MB-231/ATCC cell line growth inhibition.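 On all read-outs here: drug exposure lasted 7 days starting on day 3 of spheroid growth.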 Conditions: for viability, T/C: stronger effect = lower value. The source says: Multicellular complex tumor spheroid response to LSD1 Inhibitor Iadademstat in combination with a variety of drugs and investigational agents in selected tumor cell lines
The current study was undertaken to assess response to LSD1 inhibitors in combination with standard-of-care drugs and investigational agents in solid tumor complex spheroid models as well as in the K-562 leukemia. Complex spheroids include a stromal component modeled by human endothelial cells (HUVEC) and fibroblasts modeled by human mesenchymal stem cells (MSCs). The concentration ranges selected for each drug and investigational agent were based upon clinically achievable concentrations if the clinical Cmax of the agent was known.
Compounds. The drugs and investigational agents used in this study are listed on Table 1. All of the agents used, including staurosporine (NSC755774) and gemcitabine (NSC613327), were obtained from the Developmental Therapeutics Program, NCI. FDA-approved anticancer drugs are available from the NCI at http://dtp.nci.nih.gov/branches/dscb/oncology_drugset_explanation.html. Drugs and investigational agents were >95% pure by proton nuclear magnetic resonance (NMR) and liquid chromatography/mass spectrometry (LC/MS). Stock solutions were prepared at 400x in DMSO, stored at -70 degrees C, and diluted in fresh medium prior to their use. The final concentration of DMSO in cell culture wells never exceeded 0.25% (v/v). The FDA-approved anticancer drug set is available from the Developmental Therapeutics Program at https://dtp.cancer.gov/organization/dscb/obtaining/available_plates.htm. All drugs and investigational agents were tested over a range starting from a high concentration at or near the clinical Cmax and decreasing in half-log increments. If the clinical Cmax for an agent had not been determined, the highest concentration tested was 10 microM.
Cell Lines. The patient-derived cancer cell (PDC) lines: 292921-168-R-J2-PDC, K24384-001-R-PDC, and 521955-158-R2-J5-PDC pancreatic carcinomas, 556581-035-R-J1 ovarian carcinoma, 324938-238-R-J1-PDC, 855422-203-R-J1-PDC and 883617-216-R-J1-PDC urothelial bladder carcinomas, 743489-274-T-PDC renal cell carcinoma, 138582-R-J1 Merkel cell tumor, K60290-347-R-J1 and K57222-313-R-J1-PDC glioblastomas, 653999-131-R-J2-PDC, LG0703-F948-PDC, and 349418-098-R-PDC non-small cell lung carcinomas, 885512-296-R-J2-PDC, 171881-019-R-J1-PDC breast carcinomas and 186277-243-T-J2-PDC and 233499-124-R-J2-PDC colon carcinomas were obtained from the NCI Patient-Derived Models Repository (PDMR, https://pdmr.cancer.gov). The established cell lines NCI/ADR-RES (RRID:CVCL_14520 and OVCAR-5 (RRID:CVCL_1628) ovarian carcinomas, 786-O (RRID:CVCL_1051) and A498 (RRID:CVCL_A498) renal cell carcinoma, NCI-H211 (ATCC, cat. CRL-5824; RRID:CVCL_1529), NCI-H196 (ATCC, cat. CRL-5823, RRID:CVCL_1509), SW 1271 (ATCC, cat. CRL-2177, RRID:CVCL_1716) and NCI-H1876 (ATCC, cat. CRL-5902, RRID:CVCL_1503) small cell lung carcinomas, MDA-MB-231 (RRID:CVCL_0062) and MDA-MB-468 (RRID:CVCL_0419)breast carcinomas (10-12). Pooled donor human umbilical vein endothelial cells (HUVEC, Lonza, cat. CC-2519) and human mesenchymal stem cells (hMSC, Lonza, cat. PT-2501) were purchased from Lonza (Walkersville, MD).
Cell Culture. All cells were maintained in an incubator at 37 degrees C and 5% CO2 with 95% humidity. The PDC lines were cultured according to standard operating procedures established by the NCI PDMR (https://pdmr.cancer.gov). Briefly all PDCs were thawed and cultured in Matrigel-coated flasks prepared with a working solution of 1X Ham's F-12 nutrient mix, without supplementation (Invitrogen, Waltham, MA, cat. 11765054), 100 U/mL penicillin-streptomycin (Invitrogen, cat. 15140122), and 2.5% Matrigel (Corning Inc., Corning, NY, cat. 354248) for the first three passages. […]

[1] abbreviates: curve of first compound, second compound 0.1 µM.
The mark [2] stands for this setting: curve of first compound, second compound 0.316 µM.
Where [3] appears, read: curve of first compound, second compound 1 µM.
Setting [4] is: curve of first compound, second compound 3.16 µM.
Setting [5] is: curve of first compound, second compound 10 µM.
Setting [6] is: second compound 0.1 µM, first compound 0.0316 µM.
Setting [7] is: second compound 0.1 µM, first compound 0.1 µM.
Where [8] appears, read: second compound 0.316 µM, first compound 0.0316 µM.
The mark [9] stands for this setting: second compound 0.316 µM, first compound 0.1 µM.
Where [10] appears, read: second compound 1 µM, first compound 0.0316 µM.
Setting [11] is: second compound 1 µM, first compound 0.1 µM.
Setting [12] is: second compound 3.16 µM, first compound 0.0316 µM.
The mark [13] stands for this setting: second compound 3.16 µM, first compound 0.1 µM.
[14] abbreviates: second compound 10 µM, first compound 0.0316 µM.
[15] abbreviates: second compound 10 µM, first compound 0.1 µM.

Values joined by “and” are separate entries in the source; they are usually repeats but may differ in a detail not shown here. Identical values can stand only once.

As for `Nc1ncn(C2CC(O)C(CO)S2)c(=O)n1` (configuration not stated), the viability, T/C was 90.3% and 85% (compound 0.000949 µM); 72.3% and 68.7% (compound 0.003 µM); 61% and 45.8% (compound 0.00949 µM); 37.2% and 31.3% (compound 0.03 µM); 20.2% and 19.9% (compound 0.0949 µM); 11.1% and 9.34% (compound 0.3 µM). Besides, under “curve of compound”, the IC50 was 14.8 nM and 8.3 nM.

Regarding `CC(C)c1c(-c2ccccc2)nc2c(C#N)c[nH]n2c1=O`, the viability, T/C was 101% and 102% (compound 0.0316 µM); 94.7% and 104% (compound 0.1 µM); 97.9% and 117% (compound 0.316 µM); 106% and 112% (compound 1 µM); 108% and 121% (compound 3.16 µM); 102% and 113% (compound 10 µM). Besides, the IC50 (curve of compound) was more than 10000 nM.

For `Cn1ncnc1C1c2n[nH]c(=O)c3cc(F)cc(c23)NC1c1ccc(F)cc1` (configuration not stated), the viability, T/C was 91% and 96.8% (compound 0.000316 µM); 95.8% and 101% (compound 0.001 µM); 84.4% and 94.8% (compound 0.00316 µM); 85.8% and 78.8% (compound 0.01 µM); 78.8% and 65.3% (compound 0.0316 µM); 74.7% and 72.4% (compound 0.1 µM). Where the note is “curve of compound”, the concentration for half-maximal inhibition (IC50) was more than 100 nM.

With `O=C(c1cc(Cc2n[nH]c(=O)c3ccccc23)ccc1F)N1CCN(C(=O)C2CC2)CC1` + NC1CCC(NC2CC2c2ccccc2)CC1, the 50% inhibitory concentration (IC50) is more than 10000 nM under setting [1]; more than 10000 nM under setting [2]; more than 10000 nM under setting [3]; 7580 nM under setting [4]; 2460 nM under setting [5]. For the same molecule, the viability, T/C is 101% under setting [6]; 94.5% under setting [7]; 87.5% (second compound 0.1 µM, first compound 0.316 µM); 79.3% (second compound 0.1 µM, first compound 1 µM); 66.8% (second compound 0.1 µM, first compound 3.16 µM); 56.2% (second compound 0.1 µM, first compound 10 µM). Besides, the viability, T/C reads like this: under setting [8], 98.9%; under setting [9], 102%; (second compound 0.316 µM, first compound 0.316 µM) 93.5%; (second compound 0.316 µM, first compound 1 µM) 82.1%; (second compound 0.316 µM, first compound 3.16 µM) 66.1%; (second compound 0.316 µM, first compound 10 µM) 52.7%. Further, the viability, T/C under setting [10] was 93.1%; the viability, T/C under setting [11] was 94.5%; the viability, T/C (second compound 1 µM, first compound 0.316 µM) is 84.3%; the viability, T/C (second compound 1 µM, first compound 1 µM) was 74.5%; the viability, T/C (second compound 1 µM, first compound 3.16 µM) was 67.1%; the viability, T/C (second compound 1 µM, first compound 10 µM) was 57.6%. Moreover, the viability, T/C reads like this: under setting [12], 80.8%; under setting [13], 77.5%; (second compound 3.16 µM, first compound 0.316 µM) 74.2%; (second compound 3.16 µM, first compound 1 µM) 70.2%; (second compound 3.16 µM, first compound 3.16 µM) 56.8%; (second compound 3.16 µM, first compound 10 µM) 47.9%. The viability, T/C is, setting by setting: under setting [14], 64.4%; under setting [15], 61.9%; (second compound 10 µM, first compound 0.316 µM) 63%; (second compound 10 µM, first compound 1 µM) 55.3%; (second compound 10 µM, first compound 3.16 µM) 47.4%; (second compound 10 µM, first compound 10 µM) 37.6%.

For the molecule `CC(C)CC(NC(=O)C(Cc1ccccc1)NC(=O)c1cnccn1)B(O)O` (configuration not stated) + NC1CCC(NC2CC2c2ccccc2)CC1, the IC50 under setting [1] was found to be 1.2 nM; the half-inhibitory concentration (IC50) under setting [2] was found to be 1.23 nM; the IC50 under setting [3] was 1.05 nM; the half-maximal inhibitory concentration (IC50) under setting [4] was 0.729 nM; the IC50 under setting [5] is 0.478 nM. In addition, the viability, T/C was 106% (second compound 0.1 µM, first compound 0.000316 µM); 59.2% (second compound 0.1 µM, first compound 0.001 µM); 1.89% (second compound 0.1 µM, first compound 0.00316 µM); 0.42% (second compound 0.1 µM, first compound 0.01 µM); 0.53% under setting [6]; 3.01% under setting [7]. Moreover, the viability, T/C by setting is: (second compound 0.316 µM, first compound 0.000316 µM) 107%; (second compound 0.316 µM, first compound 0.001 µM) 60.7%; (second compound 0.316 µM, first compound 0.00316 µM) 1.73%; (second compound 0.316 µM, first compound 0.01 µM) 0.23%; under setting [8], 0.28%; under setting [9], 0.27%. The viability, T/C reads like this: (second compound 1 µM, first compound 0.000316 µM) 104%; (second compound 1 µM, first compound 0.001 µM) 52%; (second compound 1 µM, first compound 0.00316 µM) 3.37%; (second compound 1 µM, first compound 0.01 µM) 0.18%; under setting [10], 0.38%; under setting [11], 0.72%. The viability, T/C by setting is: (second compound 3.16 µM, first compound 0.000316 µM) 70%; (second compound 3.16 µM, first compound 0.001 µM) 42.4%; (second compound 3.16 µM, first compound 0.00316 µM) 1.87%; (second compound 3.16 µM, first compound 0.01 µM) 0.16%; under setting [12], 0.08%; under setting [13], 0.54%. Further, the viability, T/C (second compound 10 µM, first compound 0.000316 µM) was 58.9%; the viability, T/C (second compound 10 µM, first compound 0.001 µM) was 34.1%; the viability, T/C (second compound 10 µM, first compound 0.00316 µM) was 0.9%; the viability, T/C (second compound 10 µM, first compound 0.01 µM) is 0.23%; the viability, T/C under setting [14] was 1.54%; the viability, T/C under setting [15] was 1.08%.

Consider `CC(C)CC(NC(=O)C(Cc1ccccc1)NC(=O)c1cnccn1)B(O)O` (configuration not stated), for which the viability, T/C (compound 0.000316 µM) is 104% and 34.9%; the viability, T/C (compound 0.00316 µM) is 1.86% and 0.16%; the viability, T/C (compound 0.01 µM) is 0.35% and 0.17%; the viability, T/C (compound 0.0316 µM) is 0.31% and 0.14%; the viability, T/C (compound 0.1 µM) was 0.31% and 0.17%. For the same molecule, the IC50 (curve of compound) is 1.09 nM and < 0.316 nM.
